Laboratory results: PMC9516332 (Frontiers in Oncology, 2022)
pIC50: −log10 of the molar value. Like-named read-outs stand apart in the source and are kept apart here.

Assays:
AP-1060 (ETV6-NTRK3) = assay: Cell viability assay
134 cancer cell lines = assay: Cell viability assay (ATPlite, 72 hours), IC50 on cancer cell line panel

pIC50 (134 cancer cell lines; HEC-6, read-out: IC50 in cell proliferation assay, HEC-6 cell line (EGFR p.A289V)): < 4.50 | pIC50 (134 cancer cell lines; Homo sapiens, 769-P, read-out: IC50 in cell proliferation assay, cell line 769-P): < 4.50 | pIC50 (134 cancer cell lines; Homo sapiens, 786-0, read-out: IC50 in cell proliferation assay, cell line 786-O): < 4.50 | pIC50 (134 cancer cell lines; Homo sapiens, A 172, read-out: IC50 in cell proliferation assay, cell line A-172): < 4.50 | pIC50 (134 cancer cell lines; Homo sapiens, A204, read-out: IC50 in cell proliferation assay, cell line A-204): < 4.50 | pIC50 (134 cancer cell lines; Homo sapiens, A498, read-out: IC50 in cell proliferation assay, cell line A-498): < 4.50 | pIC50 (134 cancer cell lines; Homo sapiens, A549, read-out: IC50 in cell proliferation assay, cell line A-549): < 4.50 | pIC50 (134 cancer cell lines; Homo sapiens, A704, read-out: IC50 in cell proliferation assay, cell line A-704): < 4.50 | pIC50 (134 cancer cell lines; Homo sapiens, A-375, read-out: IC50 in cell proliferation assay, cell line A-375 (BRAF p.V600E)): < 4.50 | pIC50 (134 cancer cell lines; Homo sapiens, A-427, read-out: IC50 in cell proliferation assay, cell line A-427): < 4.50 | pIC50 (134 cancer cell lines; Homo sapiens, ACHN, read-out: IC50 in cell proliferation assay, cell line ACHN): < 4.50 | pIC50 (134 cancer cell lines; Homo sapiens, AN3-CA, read-out: IC50 in cell proliferation assay, cell line AN3-CA (FGFR2 p.N549K)): < 4.50 | pIC50 (134 cancer cell lines; Homo sapiens, ASPC1, read-out: IC50 in cell proliferation assay, cell line AsPC-1): < 4.50 | pIC50 (134 cancer cell lines; Homo sapiens, AU565, read-out: IC50 in cell proliferation assay, cell line AU565 (ERBB2 amplification)): < 4.50 | pIC50 (134 cancer cell lines; Homo sapiens, BT-20, read-out: IC50 in cell proliferation assay, cell line BT-20): < 4.50 | pIC50 (134 cancer cell lines; Homo sapiens, BT-474, read-out: IC50 in cell proliferation assay, cell line BT-474 (ERBB2 amplification)): < 4.50 | pIC50 (134 cancer cell lines; Homo sapiens, BT-549, read-out: IC50 in cell proliferation assay, cell line BT-549): < 4.50 | pIC50 (134 cancer cell lines; Homo sapiens, BXPC-3, read-out: IC50 in cell proliferation assay, cell line BxPC-3): < 4.50 | pIC50 (134 cancer cell lines; Homo sapiens, C-33-A, read-out: IC50 in cell proliferation assay, cell line C-33 A): < 4.50 | pIC50 (134 cancer cell lines; Homo sapiens, CAL-27, read-out: IC50 in cell proliferation assay, cell line CAL-27): < 4.50 | pIC50 (134 cancer cell lines; Homo sapiens, CCF-STTG1, read-out: IC50 in cell proliferation assay, cell line CCF-STTG1): < 4.50 | pIC50 (134 cancer cell lines; Homo sapiens, CCRF-CEM, read-out: IC50 in cell proliferation assay, cell line CCRF-CEM): < 4.50 | pIC50 (134 cancer cell lines; Homo sapiens, COLO 205, read-out: IC50 in cell proliferation assay, cell line COLO 205 (BRAF p.V600E)): < 4.50 | pIC50 (134 cancer cell lines; Homo sapiens, COLO-829, read-out: IC50 in cell proliferation assay, cell line COLO 829 (BRAF p.V600E)): < 4.50 | pIC50 (134 cancer cell lines; Homo sapiens, DLD-1, read-out: IC50 in cell proliferation assay, cell line DLD-1): < 4.50 | pIC50 (134 cancer cell lines; Homo sapiens, DU-4475, read-out: IC50 in cell proliferation assay, cell line DU4475 (BRAF p.V600E)): < 4.50 | pIC50 (134 cancer cell lines; Homo sapiens, Daoy, read-out: IC50 in cell proliferation assay, cell line Daoy): < 4.50 | pIC50 (134 cancer cell lines; Homo sapiens, DoTc2-4510, read-out: IC50 in cell proliferation assay, cell line DoTc2 4510): < 4.50 | pIC50 (134 cancer cell lines; Homo sapiens, EOL1, read-out: IC50 in cell proliferation assay, cell line EoL-1 (FIP1L1-PDGFRA)): < 4.50 | pIC50 (134 cancer cell lines; Homo sapiens, FaDu, read-out: IC50 in cell proliferation assay, cell line FaDu): < 4.50 | pIC50 (134 cancer cell lines; Homo sapiens, G-361, read-out: IC50 in cell proliferation assay, cell line G-361 (BRAF p.V600E)): < 4.50 | pIC50 (134 cancer cell lines; Homo sapiens, HCC827, read-out: IC50 in cell proliferation assay, cell line HCC827 (EGFR exon19del)): < 4.50 | pIC50 (134 cancer cell lines; Homo sapiens, HCC4006, read-out: IC50 in cell proliferation assay, cell line HCC4006 (EGFR exon19del)): < 4.50 | pIC50 (134 cancer cell lines; Homo sapiens, HCT-15, read-out: IC50 in cell proliferation assay, cell line HCT 15): < 4.50 | pIC50 (134 cancer cell lines; Homo sapiens, HCT-116, read-out: IC50 in cell proliferation assay, cell line HCT 116): < 4.50 | pIC50 (134 cancer cell lines; Homo sapiens, HEC-1, read-out: IC50 in cell proliferation assay, HEC-1 cell line): < 4.50 | pIC50 (134 cancer cell lines; Homo sapiens, HEC-1B, read-out: IC50 in cell proliferation assay, HEC-1-B cell line (EGFR p.A864V)): < 4.50 | pIC50 (134 cancer cell lines; Homo sapiens, HL-60, read-out: IC50 in cell proliferation assay, HL-60 cell line): < 4.50 | pIC50 (134 cancer cell lines; Homo sapiens, HT, read-out: IC50 in cell proliferation assay, HT cell line): < 4.50 | pIC50 (134 cancer cell lines; Homo sapiens, HT-1080, read-out: IC50 in cell proliferation assay, HT-1080 cell line): < 4.50 | pIC50 (134 cancer cell lines; Homo sapiens, Hs746T, read-out: IC50 in cell proliferation assay, Hs 746.T cell line (MET exon14skip + amplification)): < 4.50 | pIC50 (134 cancer cell lines; Homo sapiens, Hs-578T, read-out: IC50 in cell proliferation assay, Hs 578T cell line): < 4.50 | pIC50 (134 cancer cell lines; Homo sapiens, HuTu80, read-out: IC50 in cell proliferation assay, HuTu 80 cell line): < 4.50 | pIC50 (134 cancer cell lines; Homo sapiens, J82, read-out: IC50 in cell proliferation assay, J82 cell line): < 4.50 | pIC50 (134 cancer cell lines; Homo sapiens, Jurkat E6.1, read-out: IC50 in cell proliferation assay, Jurkat E6.1 cell line): < 4.50 | pIC50 (134 cancer cell lines; Homo sapiens, K562, read-out: IC50 in cell proliferation assay, K-562 cell line): < 4.50 | pIC50 (134 cancer cell lines; Homo sapiens, KATO III, read-out: IC50 in cell proliferation assay, KATO III cell line (FGFR2 amplification)): < 4.50 | pIC50 (134 cancer cell lines; Homo sapiens, KG-1, read-out: IC50 in cell proliferation assay, KG-1 cell line (FGFR1OP2-FGFR1)): < 4.50 | pIC50 (134 cancer cell lines; Homo sapiens, KLE, read-out: IC50 in cell proliferation assay, KLE cell line): < 4.50 | pIC50 (134 cancer cell lines; Homo sapiens, KMS-11, read-out: IC50 in cell proliferation assay, KMS-11 cell line (FGFR3 p.Y373C)): < 4.50 | pIC50 (134 cancer cell lines; Homo sapiens, KU812, read-out: IC50 in cell proliferation assay, Ku812 cell line): < 4.50 | pIC50 (134 cancer cell lines; Homo sapiens, Kasumi 1, read-out: IC50 in cell proliferation assay, Kasumi-1 cell line (KIT p.N822K)): < 4.50 | pIC50 (134 cancer cell lines; Homo sapiens, LC-2-ad, read-out: IC50 in cell proliferation assay, LC-2/ad cell line (CCDC6-RET)): < 4.50 | pIC50 (134 cancer cell lines; Homo sapiens, LNCaP-Clone-FGC, read-out: IC50 in cell proliferation assay, LNCaP clone FGC cell line): < 4.50 | pIC50 (134 cancer cell lines; Homo sapiens, LS174T, read-out: IC50 in cell proliferation assay, LS174T cell line): < 4.50 | pIC50 (134 cancer cell lines; Homo sapiens, LS-411N, read-out: IC50 in cell proliferation assay, LS411N cell line (BRAF p.V600E)): < 4.50 | pIC50 (134 cancer cell lines; Homo sapiens, LoVo, read-out: IC50 in cell proliferation assay, LoVo cell line): < 4.50 | pIC50 (134 cancer cell lines; Homo sapiens, MCF7, read-out: IC50 in cell proliferation assay, MCF-7 cell line): < 4.50 | pIC50 (134 cancer cell lines; Homo sapiens, MDA-MB-231, read-out: IC50 in cell proliferation assay, MDA-MB-231 cell line): < 4.50 | pIC50 (134 cancer cell lines; Homo sapiens, MDA-MB-453, read-out: IC50 in cell proliferation assay, MDA-MB-453 cell line): < 4.50 | pIC50 (134 cancer cell lines; Homo sapiens, MDA-MB-468, read-out: IC50 in cell proliferation assay, MDA-MB-468 cell line): < 4.50 | pIC50 (134 cancer cell lines; Homo sapiens, MG-63, read-out: IC50 in cell proliferation assay, MG-63 cell line): < 4.50 | pIC50 (134 cancer cell lines; Homo sapiens, MIA PaCa-2, read-out: IC50 in cell proliferation assay, MIA PaCa-2 cell line): < 4.50 | pIC50 (134 cancer cell lines; Homo sapiens, MKN-45, read-out: IC50 in cell proliferation assay, MKN45 cell line (MET amplification)): < 4.50 | pIC50 (134 cancer cell lines; Homo sapiens, MOLM-13, read-out: IC50 in cell proliferation assay, MOLM-13 cell line (FLT3 ITD)): 4.90 | pIC50 (134 cancer cell lines; Homo sapiens, MOLT-4, read-out: IC50 in cell proliferation assay, MOLT-4 cell line): < 4.50 | pIC50 (134 cancer cell lines; Homo sapiens, MV4-11, read-out: IC50 in cell proliferation assay, MV4-11 cell line (FLT3 ITD)): 4.58
SMILES: O=C(Nc1cnn2ccc(N3CCC[C@@H]3c3cc(F)ccc3F)nc12)N1CC[C@H](O)C1 [larotrectinib]
potency in AP-1060 compared to entrectinib (AP-1060 (ETV6-NTRK3); cell viability): around four-fold more potent | pIC50 (AP-1060 (ETV6-NTRK3); read-out: IC50 in cell proliferation assay): 8.05
